Tests used:
[1] = tested on: Madin–Darby canine kidney (MDCK) cells; settings: dog
[2] = tested on: H5N1 influenza virus strain A/Egypt/M7217B/2013; assay: microbe, parasite or virus in culture; type: cell-based, influenza A virus (subtype H5N1); settings: for inhibition at 125 µM / inhibition at 250 µM: MDCK, read-out: inhibition % (plaque reduction assay)

| SMILES | MTT assay LD50 [1] | viral count (plaque reduction assay) [2] | inhibition at 125 µM [2] | inhibition at 250 µM [2] | safety for healthy cells judged from LD50 values (NCI and GERAN protocol) [1] | therapeutic index (qualitative, plaque reduction assay) [2] |
| --- | --- | --- | --- | --- | --- | --- |
| N#Cc1nnc2c(C#N)c(NC(=O)c3ccccc3)nn2c1N [6a, N-(4-Amino-3,8-dicyanopyrazolo[5,1-c][1,2,4]triazin-7-yl)benzamide] | 200 µmol/mL | 4.0 × 10^6 3.0 × 10^6 PFU/mL | 33.3% | 50% |  |  |
| N#Cc1c(N)nc2c(C#N)c(NC(=O)c3ccccc3)nn2c1-c1ccc(Cl)cc1 [10c, N-(5-Amino-7-(4-chlorophenyl)-3,6-dicyanopyrazolo[1,5-a]pyrimidin-2-yl)benzamide] | 120 µmol/mL | 4.0 × 10^6 2.0 × 10^6 PFU/mL | 33.3% | 66.7% |  |  |
| CCSC(NC(=O)c1ccccc1)=C(C#N)C#N [3b, N-(2,2-Dicyano-1-(ethylthio)vinyl)benzamide] | 480 µmol/mL | 2.2 × 10^6 9.0 × 10^5 PFU/mL | 63.3% | 85% | safe for healthy cells | higher therapeutic indices |
| CC(=O)OC[C@H]1O[C@@H](SC(NC(=O)c2ccccc2)=C(C#N)C#N)[C@H](OC(C)=O)[C@H](OC(C)=O)[C@H]1OC(C)=O [21a, (2R,3S,4R,5R,6S)-2-(Acetoxymethyl)-6-((1-benzamido-2,2-dicyanovinyl)thio)tetrahydro-2H-pyran-3,4,5-triyl triacetate] | 90 µmol/mL | 2.2 × 10^6 2.0 × 10^6 PFU/mL | 63.3% | 66.7% |  |  |
| CCOc1n[nH]c(-c2ccccc2)n1 [compound 19, 3-Ethoxy-5-phenyl-1H-1,2,4-triazole] | 230 µmol/mL | 2.2 × 10^6 2.0 × 10^6 PFU/mL | 63.3% | 66.7% |  |  |
| CSC(NC(=O)c1ccccc1)=C(C#N)C#N [3a, N-(2,2-Dicyano-1-(methylthio)vinyl)benzamide] | 200 µmol/mL | 5.0 × 10^6 4.0 × 10^6 PFU/mL | 16.7% | 33.3% |  |  |
| N#Cc1c(NC(=O)c2ccccc2)n[nH]c1N [compound 4, N-(5-Amino-4-cyano-1H-pyrazol-3-yl)benzamide] | 30 µmol/mL | 2.0 × 10^6 1.4 × 10^6 PFU/mL | 66.7% | 76.7% |  | higher therapeutic indices |
| CCOC(=O)/C(C#N)=C(\NC(=O)c1ccccc1)S[C@@H]1O[C@H](COC(C)=O)[C@H](OC(C)=O)[C@@H](OC(C)=O)[C@H]1OC(C)=O [21b, (2R,3S,4R,5R,6S)-2-(Acetoxymethyl)-6-(((E)-1-benzamido-2-cyano-3-ethoxy-3-oxoprop-1-en-1-yl)thio)tetrahydro-2H-pyran-3,4,5-triyl triacetate] | 210 µmol/mL | 3.5 × 10^6 2.0 × 10^6 PFU/mL | 41.7% | 66.7% |  |  |
| N#Cc1c(NC(=O)c2ccccc2)nn2c3c(cnc12)CCCC3 [8b, N-(3-Cyano-6,7,8,9-tetrahydrocyclohexa[e]pyrazolo[1,5-a]pyrimidin-2-yl)benzamide] | 210 µmol/mL |  |  |  |  |  |
| COc1ccc(-c2c(C#N)c(N)nc3c(C#N)c(NC(=O)c4ccccc4)nn23)cc1 [10b, N-(5-Amino-3,6-dicyano-7-(4-methoxyphenyl)pyrazolo[1,5-a]pyrimidin-2-yl)benzamide] | 140 µmol/mL | 1.0 × 10^6 b PFU/mL |  |  |  | higher therapeutic indices |
| CC(=O)N[C@H]1[C@H]([C@H](O)[C@H](O)CO)OC(C(=O)O)=C[C@@H]1N=C(N)N [zanamivir, reference compound] |  | 5.0 × 10^4 1.1 × 10^4 PFU/mL | 99.2% | 99.8% |  |  |
| CCOc1c(C#N)nnc2c(C#N)c(NC(=O)c3ccccc3)nn12 [6b, N-(3,8-Dicyano-4-ethoxypyrazolo[5,1-c][1,2,4]triazin-7-yl)benzamide] | 100 µmol/mL | 3.0 × 10^6 3.2 × 10^6 PFU/mL | 50% | 46.7% |  |  |
| N#CC(C#N)=C(NC(=O)c1ccccc1)SCc1ccccc1 [3c, N-(1-(Benzylthio)-2,2-dicyanovinyl)benzamide] | 200 µmol/mL | 2.8 × 10^6 2.1 × 10^6 PFU/mL | 53.3% | 65% |  |  |
| CCOC(=O)/C(C#N)=C(\NC(=O)c1ccccc1)SC [compound 14, (E)-Ethyl 3-benzamido-2-cyano-3-(methylthio)acrylate] | 130 µmol/mL | 5.0 × 10^6 5.0 × 10^6 PFU/mL | 16.7% | 16.7% |  |  |
| Cc1cc(O)n2nc(NC(=O)c3ccccc3)c(C#N)c2n1 [12b, N-(3-Cyano-7-hydroxy-5-methylpyrazolo[1,5-a]pyrimidin-2-yl)benzamide] | 190 µmol/mL | 5.0 × 10^6 4.0 × 10^6 PFU/mL | 16.7% | 33.3% |  |  |
| Cc1cc(C)n2nc(NC(=O)c3ccccc3)c(C#N)c2n1 [12a, N-(3-Cyano-5,7-dimethylpyrazolo[1,5-a]pyrimidin-2-yl)benzamide] | 210 µmol/mL | 4.6 × 10^6 2.0 × 10^6 PFU/mL | 23.3% | 66.7% |  |  |
| N#Cc1c(NC(=O)c2ccccc2)nn2c3c(cnc12)CCC3 [8a, N-(3-Cyano-7,8-dihydro-6H-cyclopenta[e]pyrazolo[1,5-a]pyrimidin-2-yl)benzamide] | 170 µmol/mL | 4.0 × 10^6 2.5 × 10^6 PFU/mL | 33.3% | 58.3% |  |  |
